Reference: patent US20190307729A1, “ANTIMICROBIAL COMPOUNDS AND METHODS FOR USE THEREOF” (VERSITECH LIMITED, priority 2016, published 2019)
Read-outs that look alike come from different tables or passages of the source.

Key:
[1] = system: Vero cells; assay: Cytotoxicity assay (MTT); assay type: cell-based; details: for Cytotoxicity: MTT assays in Vero cells
Experimental: MTT assays are performed for selected compounds on Vero cells according to product instructions.

[2] = system: S. aureus Mu3; assay: Secondary screening of compound 13 analogues in combination with gentamicin (growth by OD 595 nm); details: for activity at 5 µM / activity at 20 µM / activity at 50 µM / inhibition at 20 µM / inhibition at 50 µM: Staphylococcus aureus; for activity at 5 µM / activity at 20 µM / activity at 50 µM: MU3, 16 h; for 20 μM + 200 μg/ml Gentamicin Growth inhibition Percentage: 20 μM compound + 200 μg/ml gentamicin; for 50 μM + 200 μg/ml Gentamicin Growth inhibition Percentage: 50 μM compound + 200 μg/ml gentamicin
Experimental: All screening is done in 384-well polystyrene microtiter plates (Greiner Bio-One). Overnight culture of Mu3 is washed with BHI medium 3 times, diluted and plated to give 5×10^5 CFU/mL per well. The plates are incubated at 37° C. for 16 hours and growth is monitored by optical density reading at 595 nm using an automated DTX 880 multimode detector. Screening using BHI medium is designated as the background screen. […] Sub MIC concentration of antibiotics is selected for screening. BHI containing a final concentration for gentamicin 156.25 μg/mL is used correspondingly for individual experiments. […] Screening results with various antibiotics is normalized with the background screening to calculate the percentage of growth inhibition.
Identical experimental procedures are performed as primary screening procedures, except different concentrations of selected compound are tested.
Secondary like screening was performed with different concentrations of each analogue compounds were tested with different gentamicin concentration, 50 μM, 20 μM and 5 μM compound concentration were used against, BHI containing, 0 μg/ml, 100 μg/ml and 200 μg/ml gentamicin.

[3] = system: S. aureus Mu3 strain; assay: Microdilution checkerboard assay of compound with aminoglycosides; details: for Combinatory effect with gentamicin: checkerboard
Experimental: The Checkerboard assay is performed in 96-well microtitre plates. […] The antibiotics are 2 fold serially diluted along the ordinate, the compounds are added along the abscissa to generate the checkerboard concentration gradients between the compounds and the antibiotics. Bacterial culture are topped and incubated overnight. Bacterial growth is monitored by the OD absorbance at 595 nm.
The concentration tested range was from 500M to 0.98 μM. MICs higher than 500M were not determined.

[4] = MU3, read-out: 20 μM + 200 μg/ml Gentamicin Growth inhibition Percentage
[5] = MU3, read-out: 50 μM + 200 μg/ml Gentamicin Growth inhibition Percentage
[6] = [Cpd] 5 μM, [Genta] 100 ug/ml, relative to DMSO = 1
[7] = [Cpd] 5 μM, [Genta] 200 ug/ml, relative to DMSO = 1
[8] = [Cpd] 20 μM, [Genta] 100 ug/ml, relative to DMSO = 1
[9] = [Cpd] 20 μM, [Genta] 200 ug/ml, relative to DMSO = 1
[10] = [Cpd] 50 μM, [Genta] 100 ug/ml, relative to DMSO = 1
[11] = [Cpd] 50 μM, [Genta] 200 ug/ml, relative to DMSO = 1
[12] = read-out: relative growth, [Cpd] 5 μM, BHI only (no gentamicin), relative to DMSO = 1
[13] = read-out: relative growth, [Cpd] 20 μM, BHI only (no gentamicin), relative to DMSO = 1
[14] = read-out: relative growth, [Cpd] 50 μM, BHI only (no gentamicin), relative to DMSO = 1
[15] = [Cpd] 5 μM, BHI only (no gentamicin), relative to DMSO = 1
[16] = [Cpd] 20 μM, BHI only (no gentamicin), relative to DMSO = 1
[17] = [Cpd] 50 μM, BHI only (no gentamicin), relative to DMSO = 1

| Compound | activity at 5 µM ([2]; read-out: relative growth) | activity at 20 µM ([2]; read-out: relative growth) | activity at 50 µM ([2]; read-out: relative growth) | inhibition at 20 µM [2, 4] | inhibition at 50 µM [2, 5] | relative growth [2, 6] | relative growth [2, 7] | relative growth [2, 8] | relative growth [2, 9] | relative growth [2, 10] | relative growth [2, 11] | also measured |
| --- | --- | --- | --- | --- | --- | --- | --- | --- | --- | --- | --- | --- |
| O=C(O)CN1C(=O)/C(=C/c2cccc(OCc3ccc(Cl)cc3Cl)c2)SC1=S [Compound 17] | 99% | 74% | 43% | 91% | 87% | *0.35 | *0.1 | *0.09 | *0.09 | *0.14 | *0.13 | cytotoxicity from Vero cell MTT assays [1]: high cytotoxicity; Cytotoxicity [1]: High; Combinatory effect with gentamicin [3]: Potentiating; combined effect with gentamicin in inhibiting growth [3]: potentiating activities; combined effect with gentamicin in inhibiting growth ([3]; listed as compound 17): potentiating effect |
| O=C(O)CN1C(=O)/C(=C/c2cccc(OCc3ccccc3Cl)c2)SC1=S [Compound 19] | 99% | 91% | 76% | 91% | 92% | 0.96 | 0.83 | *0.1 | *0.09 | *0.09 | *0.08 | cytotoxicity from Vero cell MTT assays [1]: less cytotoxicity; Cytotoxicity [1]: Medium; Combinatory effect with gentamicin [3]: Potentiating; combined effect with gentamicin in inhibiting growth [3]: promising potentiating effect; combined effect with gentamicin in inhibiting growth ([3]; listed as compound 19): potentiating effect |
| COc1cc(/C=C2\SC(=S)N(CC(=O)O)C2=O)ccc1OCc1ccccc1F [Compound 25] | 96% | 91% | 95% | 38% | 58% | 0.95 | 0.92 | 0.89 | 0.62 | 0.91 | 0.42 |  |
| COC(=O)c1ccccc1 [Compound 29] |  |  |  |  |  | 0.94 | 0.89 | 0.67 | *0.39 | *0.11 | *0.08 | 20 μM + 200 μg/ml Gentamicin Growth inhibition Percentage ([2]; S. aureus Mu3, 20 µM): 61%; 50 μM + 200 μg/ml Gentamicin Growth inhibition Percentage ([2]; S. aureus Mu3, 50 µM): 92%; activity at 5 µM [2, 12]: 96%; activity at 20 µM [2, 13]: 90%; activity at 50 µM [2, 14]: 89% |
| CCOc1ccc(/C=C2\SC(=S)N(CC(=O)O)C2=O)cc1 [Compound 31] | 99% | 96% | 98% | 23% | 39% | 0.98 | 0.95 | 0.98 | 0.77 | 0.98 | 0.61 |  |
| CCOc1cc(/C=C2\SC(=S)N(CC(=O)O)C2=O)ccc1OCc1ccc(Cl)c(Cl)c1 [Compound 34] | 112% | 109% | 113% | 67% | 43% | 0.9 | *0.24 | 0.67 | *0.33 | 1.16 | 0.57 |  |
| COc1cc(/C=C2\SC(=S)N(CC(=O)O)C2=O)ccc1OCc1ccc(Br)cc1 [Compound 44] | 103% | 103% | 98% | 17% | 53% | 1.02 | 0.83 | 0.99 | 0.83 | 0.97 | 0.47 |  |
| COc1cc(C=C2SC(=S)N(CC(=O)O)C2=O)ccc1OCc1ccc(F)cc1Cl [Compound 50] |  |  |  |  |  | 0.91 | 0.87 | 0.82 | 0.64 | 0.9 | 0.6 | 20 μM + 200 μg/ml Gentamicin Growth inhibition Percentage ([2]; S. aureus Mu3): 36%; 50 μM + 200 μg/ml Gentamicin Growth inhibition Percentage ([2]; S. aureus Mu3): 40%; relative growth [2, 15]: 0.93; relative growth [2, 16]: 0.82; relative growth [2, 17]: 0.96 |
| COCc1ccccc1 [Compound 52] |  |  |  |  |  | 0.96 | 0.93 | 0.89 | 0.69 | 0.74 | *0.36 | activity at 5 µM [2, 12]: 95%; activity at 20 µM [2, 13]: 86%; activity at 50 µM [2, 14]: 76%; inhibition at 20 µM ([2]; MU3, read-out: 20 μM + 200 μg/ml Gentamicin Growth inhibition Percentage, 20 μM compound + 200 μg/ml gentamicin, S. aureus Mu3): 31%; inhibition at 50 µM ([2]; MU3, read-out: 50 μM + 200 μg/ml Gentamicin Growth inhibition Percentage, 50 μM compound + 200 μg/ml gentamicin, S. aureus Mu3): 64% |
| CC(C(=O)O)N1C(=O)/C(=C/c2ccc(Cl)cc2)SC1=S (stereo not shown) [Compound 53] | 93% | 89% | 88% | 24% | 62% | 0.92 | 0.89 | 0.9 | 0.76 | 0.84 | *0.38 |  |
| O=C(O)CN1C(=O)/C(=C/c2cccc(OCc3ccccc3F)c2)SC1=S [Compound 63] | 97% | 93% | 84% | 65% | 92% | 0.97 | 0.88 | 0.67 | *0.35 | *0.11 | *0.08 |  |
| COC(=O)CN1C(=O)C(=Cc2ccc(OCc3ccccc3)cc2)SC1=S [Compound 69] |  |  |  |  |  | 0.97 | 0.98 | 0.56 | *0.11 | *0.27 | *0.23 | 20 μM + 200 μg/ml Gentamicin Growth inhibition Percentage ([2]; S. aureus Mu3): 89%; 50 μM + 200 μg/ml Gentamicin Growth inhibition Percentage ([2]; S. aureus Mu3): 77%; relative growth [2, 15]: 0.97; relative growth [2, 16]: 1.02; relative growth [2, 17]: 0.55 |
